Consider 17 compounds from patent publication US20240246968A1, “SMALL MOLECULE INHIBITORS OF KRAS G12C MUTANT” (Merck Sharp & Dohme LLC, priority 2021, published 2024).

The target of experiment [1] is T1, interaction between recombinant K-Ras4B G12C mutant protein and cRAF RAS-binding domain (cRAF-RBD) (Homo sapiens, UniProt P01116, G12C).
T1 construct: made in house; host or cells: E. coli
Nature of the experiment: Inhibitory activity on interaction between KRAS G12C and cRAF (Alpha technology). Format: biochemical. The settings on record: GMPPNP-bound KRAS G12C incubated with compound at 25° C. for 1 hour, then cRAF-RBD; Alpha signal. Put shortly: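 Alpha readout of cRAF-RBD (aa 50-132) binding to KRAS G12C (aa 1-169) after 1.5 h RT, following 1 h, 25° C compound preincubation with GMPPNP-bound protein (pH 7.5 Tris, 1 mM MgCl2, TCEP, Tween 20). IC50 fitted from titrations, with GDP-bound KRAS as 100% and DMSO as 0% inhibition.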

The next experiment concerns MIA PaCa-2 cells. Kind of experiment: Growth inhibition activity on KRAS-G12C mutant cell line (MIA PaCa-2), CellTiter-Glo 3D. Format: cell-based, human. The settings on record: MIA PaCa-2, 3-day culture with compound. Put shortly:
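Luminescence readout (CellTiter-Glo 3D) after 3 days of compound treatment at 37 °C, 5% CO2, 0.2% final DMSO, gave % growth inhibition versus no-compound wells, from which IC50 (nM) was derived; cells had been plated in 10% FBS RPMI1640 one day before dosing.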
(In general: In ATP-based viability assays light output follows the ATP content of the culture.)

The target of experiment [2] is Gppcp-bound recombinant K-Ras4B G12C mutant protein (amino acids 1-169, C51S/C80L/C118S) (Homo sapiens, UniProt P01116, C118S/C51S/C80L/G12C). Nature of the experiment: KRASG12C binding assay (LC-MS, compound binding rate). The settings on record: test compound final concentration 0.5 μM, 25° C., 1 hour. Put shortly: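 Covalent adduct formation measured by deconvoluted intact-mass LC-MS after 1 h at 25 °C with compound at 0.5 μM final and 50 nM Gppcp-loaded KRAS G12C (residues 1-169, C51S/C80L/C118S). Buffer: TBS, 0.1 mM TCEP, 0.25 mM MgCl2, 50 μM Gppcp. Binding % = one-molecule adduct/(unbound + all adducts), binned A ≥80, B 60–80, C 40–60, D 20–40, E <20.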

A word on the IC50: it is the concentration that inhibits the measured activity by half. With `CO[C@H]1CC[C@H](NC/C=C/C(=O)Nc2c(F)cc(C(=O)c3ccc4c(-c5c(C(F)(F)F)cc6c(nc(C)n6C)c5Cl)cccn34)cc2F)CC1` (single isomer, unassigned) [Example 32-2, (E)-N-(4-(8-(4-chloro-1,2-dimethyl-6-(trifluoromethyl)-1H-benzo[d]imidazol-5-yl)indolizine-3-carbonyl)-2,6-difluorophenyl)-4-(((1r,4r)-4-methoxycyclohexyl)amino)but-2-enamide], the results for the IC50 (in experiment [1]; in the experiment with MIA PaCa-2 cells) were 420 nM and 990 nM, respectively. Moreover, the binding rate result in experiment [2] was “A (A binding rate of 80% or more is rated “A”)”.
The like results for `CO[C@H]1CC[C@H](NC/C=C/C(=O)Nc2c(F)cc(C(=O)c3ccc4c(-c5c(C)cc6c(ncn6C)c5C)cccn34)cc2F)CC1` (single isomer, unassigned) [Example 34-1, (E)-N-(2,6-difluoro-4-(8-(1,4,6-trimethyl-1H-benzo[d]imidazol-5-yl)indolizine-3-carbonyl)phenyl)-4-(((1r,4r)-4-methoxycyclohexyl)amino)but-2-enamide] were, in that order, 94 nM, 130 nM and “A (A binding rate of 80% or more is rated “A”)”.
Consider `CO[C@H]1CC[C@H](NC/C=C/C(=O)Nc2c(F)cc(C(=O)c3ccc4c(-c5c(C)cc6c(ncn6C)c5C)cccn34)cc2F)CC1` (single isomer, unassigned) [Example 34-2, (E)-N-(2,6-difluoro-4-(8-(1,4,6-trimethyl-1H-benzo[d]imidazol-5-yl)indolizine-3-carbonyl)phenyl)-4-(((1r,4r)-4-methoxycyclohexyl)amino)but-2-enamide], for which the IC50 in experiment [1] is 200 nM; in the experiment on MIA PaCa-2 cells it was 310 nM. Besides, the binding rate result in experiment [2] was “B (a binding rate of 60% or more and less than 80% is rated “B”)”.
Consider `COc1cc2c(nc(C)n2C)c(Cl)c1-c1cccn2c(C(=O)c3cc(F)c(NC(=O)/C=C/CN[C@H]4CC[C@H](OC)CC4)c(F)c3)ccc12` (single isomer, unassigned) [Example 35-1, (E)-N-(4-(8-(4-chloro-6-methoxy-1,2-dimethyl-1H-benzo[d]imidazol-5-yl)indolizine-3-carbonyl)-2,6-difluorophenyl)-4-(((1r,4r)-4-methoxycyclohexyl)amino)but-2-enamide], for which the half-inhibitory concentration (IC50) in experiment [1] was 29 nM; with MIA PaCa-2 cells, 35 nM. For the same compound, the binding rate result in experiment [2] is reported as “A (A binding rate of 80% or more is rated “A”)”.
For `COc1cc2c(nc(C)n2C)c(Cl)c1-c1cccn2c(C(=O)c3cc(F)c(NC(=O)/C=C/CN[C@H]4CC[C@H](OC)CC4)c(F)c3)ccc12` (single isomer, unassigned) [Example 35-2, (E)-N-(4-(8-(4-chloro-6-methoxy-1,2-dimethyl-1H-benzo[d]imidazol-5-yl)indolizine-3-carbonyl)-2,6-difluorophenyl)-4-(((1r,4r)-4-methoxycyclohexyl)amino)but-2-enamide], in that order: 53 nM, 73 nM and “A (A binding rate of 80% or more is rated “A”)”.
`COc1cc2c(nc(C)n2C)c(Cl)c1-c1cccn2c(C(=O)c3cc(F)c(NC(=O)/C=C/CNC(C)(C)C)c(F)c3)ccc12` (single isomer, unassigned) [Example 36-1, (E)-4-(tert-butylamino)-N-(4-(8-(4-chloro-6-methoxy-1,2-dimethyl-1H-benzo[d]imidazol-5-yl)indolizine-3-carbonyl)-2,6-difluorophenyl)but-2-enamide]: the IC50 in experiment [1] was 40 nM; in the experiment with MIA PaCa-2 cells, 24 nM. Moreover, the binding rate entry in experiment [2] is “B (a binding rate of 60% or more and less than 80% is rated “B”)”.
Take `COc1cc2c(nc(C)n2C)c(Cl)c1-c1cccn2c(C(=O)c3cc(F)c(NC(=O)/C=C/CNC(C)(C)C)c(F)c3)ccc12` (single isomer, unassigned) [Example 36-2, (E)-4-(tert-butylamino)-N-(4-(8-(4-chloro-6-methoxy-1,2-dimethyl-1H-benzo[d]imidazol-5-yl)indolizine-3-carbonyl)-2,6-difluorophenyl)but-2-enamide]: the results for the IC50 (in experiment [1]; in the experiment with MIA PaCa-2 cells) were 56 nM and 60 nM, respectively. Further, in experiment [2], the binding rate result is “A (A binding rate of 80% or more is rated “A”)”.
As for `COc1c(-c2cccn3c(C(=O)c4cc(F)c(NC(=O)/C=C/CN[C@H]5CC[C@H](OC)CC5)c(F)c4)ccc23)c(C)cc2c1nc(C)n2C` (single isomer, unassigned) [Example 39-1, (E)-N-(2,6-difluoro-4-(8-(4-methoxy-1,2,6-trimethyl-1H-benzo[d]imidazol-5-yl)indolizine-3-carbonyl)phenyl)-4-(((1r,4r)-4-methoxycyclohexyl)amino)but-2-enamide], the IC50 in experiment [1] stood at 580 nM; in the experiment on MIA PaCa-2 cells, 350 nM. The binding rate result in experiment [2] was “A (A binding rate of 80% or more is rated “A”)”.
For the compound `COc1c(-c2cccn3c(C(=O)c4cc(F)c(NC(=O)/C=C/CN[C@H]5CC[C@H](OC)CC5)c(F)c4)ccc23)c(C)cc2c1nc(C)n2C` (single isomer, unassigned) [Example 39-2, (E)-N-(2,6-difluoro-4-(8-(4-methoxy-1,2,6-trimethyl-1H-benzo[d]imidazol-5-yl)indolizine-3-carbonyl)phenyl)-4-(((1r,4r)-4-methoxycyclohexyl)amino)but-2-enamide], the IC50 was found to be 32 nM in experiment [1] and 44 nM in the experiment with MIA PaCa-2 cells. For the same compound, the binding rate entry in experiment [2] is recorded as “A (A binding rate of 80% or more is rated “A”)”.
For `COc1c(-c2cccn3c(C(=O)c4cc(F)c(NC(=O)/C=C/CNC(C)(C)C)c(F)c4)ccc23)c(C)cc2c1nc(C)n2C` (single isomer, unassigned) [Example 40-1], the 50% inhibitory concentration (IC50) (in experiment [1]; in the experiment on MIA PaCa-2 cells) was 340 nM in each case. Besides, the binding rate result in experiment [2] is recorded as “A (A binding rate of 80% or more is rated “A”)”.
With `COc1c(-c2cccn3c(C(=O)c4cc(F)c(NC(=O)/C=C/CNC(C)(C)C)c(F)c4)ccc23)c(C)cc2c1nc(C)n2C` (single isomer, unassigned) [Example 40-2], the half-inhibitory concentration (IC50) in experiment [1] was determined as 21 nM; in the experiment on MIA PaCa-2 cells, 73 nM. The binding rate result in experiment [2] was “A (A binding rate of 80% or more is rated “A”)”.
In the case of `COc1cc2c(ncn2C)c(Cl)c1-c1cccn2c(C(=O)c3cc(F)c(NC(=O)/C=C/CN[C@H]4CC[C@H](OC)CC4)c(F)c3)ccc12` (single isomer, unassigned) [Example 41-1, (E)-N-(4-(8-(4-chloro-6-methoxy-1-methyl-1H-benzo[d]imidazol-5-yl)indolizine-3-carbonyl)-2,6-difluorophenyl)-4-(((1r,4r)-4-methoxycyclohexyl)amino)but-2-enamide], the IC50 in experiment [1] is 52 nM; in the experiment on MIA PaCa-2 cells (Homo sapiens, MIA PaCa-2, 72 h) it was 32 nM. In addition, the binding rate result in experiment [2] is “A (A binding rate of 80% or more is rated “A”)”.
For `COc1cc2c(ncn2C)c(Cl)c1-c1cccn2c(C(=O)c3cc(F)c(NC(=O)/C=C/CN[C@H]4CC[C@H](OC)CC4)c(F)c3)ccc12` (single isomer, unassigned) [Example 41-2, (E)-N-(4-(8-(4-chloro-6-methoxy-1-methyl-1H-benzo[d]imidazol-5-yl)indolizine-3-carbonyl)-2,6-difluorophenyl)-4-(((1r,4r)-4-methoxycyclohexyl)amino)but-2-enamide], the IC50 amounted to 74 nM in experiment [1] and 50 nM in the experiment on MIA PaCa-2 cells. Besides, the binding rate result in experiment [2] is on record as “A (A binding rate of 80% or more is rated “A”)”.
`CO[C@H](C)c1nc2c(Cl)c(-c3cccn4c(C(=O)c5cc(F)c(NC(=O)/C=C/CN[C@H]6CC[C@H](OC)CC6)c(F)c5)ccc34)c(C)cc2n1C` (single isomer, unassigned) [Example 47]: the figures for the IC50 (in experiment [1]; with MIA PaCa-2 cells) were 16 nM and 75 nM, respectively. Further, in experiment [2], the binding rate entry is listed as “A (A binding rate of 80% or more is rated “A”)”.
Take `CO[C@H](C)c1nc2c(Cl)c(-c3cccn4c(C(=O)c5cc(F)c(NC(=O)/C=C/CN[C@H]6CC[C@H](OC)CC6)c(F)c5)ccc34)c(C)cc2n1C` (single isomer, unassigned) [Example 48]: the IC50 in experiment [1] stood at 110 nM; with MIA PaCa-2 cells it was 230 nM. Besides, the binding rate result in experiment [2] is “A (A binding rate of 80% or more is rated “A”)”.
For `CO[C@H](C)c1nc2c(Cl)c(-c3cccn4c(C(=O)c5cc(F)c(NC(=O)/C=C/CNC(C)(C)C)c(F)c5)ccc34)c(C)cc2n1C` (single isomer, unassigned) [Example 49], in that order: 19 nM, 49 nM and “A (A binding rate of 80% or more is rated “A”)”.
The like results for `CO[C@H](C)c1nc2c(Cl)c(-c3cccn4c(C(=O)c5cc(F)c(NC(=O)/C=C/CNC(C)(C)C)c(F)c5)ccc34)c(C)cc2n1C` (single isomer, unassigned) [Example 50] were, in that order, 250 nM, 220 nM and “A (A binding rate of 80% or more is rated “A”)”.
